Several values for one entry are separate records, joined by “and”; a condition that tells them apart may be missing. Equal values may be shown once.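 How tested: cells in 96-well plates exposed to compound for 48 hours at five concentrations. The concentration for 50% growth inhibition is given as GI50.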 Activity calls are given as the source filed them. No stated cut-off is given here; in the data, active = GI50 up to about 1.1 µM and inactive = higher.
How the values were obtained:
Experiment in all cases: NCI-60 cell line screen, 48 h
[1] = tested on: 786-0
[2] = tested on: A498
[3] = tested on: A549
[4] = tested on: ACHN
[5] = tested on: BT-549
[6] = tested on: CAKI-1
[7] = tested on: CCRF-CEM
[8] = tested on: DU-145
[9] = tested on: EKVX
[10] = tested on: HCT-15
[11] = tested on: HL-60
[12] = tested on: HOP-62
[13] = tested on: HOP-92
[14] = tested on: Hs-578T
[15] = tested on: K562
[16] = tested on: KM12
[17] = tested on: LOX IMVI
[18] = tested on: M14
[19] = tested on: MCF7
[20] = tested on: MDA-MB-231
[21] = tested on: MDA-MB-435
[22] = tested on: MDA-N
[23] = tested on: MOLT-4
[24] = tested on: Malme-3M
[25] = tested on: NCI-H226
[26] = tested on: NCI-H23
[27] = tested on: NCI-H460
[28] = tested on: NCI-H522
[29] = tested on: NCI/ADR-RES
[30] = tested on: OVCAR-3
[31] = tested on: OVCAR-4
[32] = tested on: OVCAR-5
[33] = tested on: OVCAR-8
[34] = tested on: PC-3
[35] = tested on: RPMI-8226
[36] = tested on: RXF 393
[37] = tested on: SF-268
[38] = tested on: SF-295
[39] = tested on: SF-539
[40] = tested on: SK-MEL-28
[41] = tested on: SK-MEL-2
[42] = tested on: SK-MEL-5
[43] = tested on: SK-OV-3
[44] = tested on: SN12C
[45] = tested on: SNB-75
[46] = tested on: SR
[47] = tested on: SW-620
[48] = tested on: TK-10
[49] = tested on: U-251
[50] = tested on: UACC-257
[51] = tested on: UACC-62
[52] = tested on: UO-31
[53] = tested on: COLO 205
[54] = tested on: HCC 2998
[55] = tested on: HT-29
[56] = tested on: IGROV-1
[57] = tested on: SNB-19
[58] = tested on: T47D

Compound: N=C(N)N/N=C/c1c(-c2cc([N+](=O)[O-])c(Cl)cc2Cl)nc2sccn12
- GI50 [1]: 1670 nM (inactive)
- GI50 [2]: 1.62 µM (inactive) and 1.61 µM (inactive)
- GI50 [3]: 1.82 µM (inactive) and 1.51 µM (inactive)
- GI50 [4]: 527 nM (active) and 1.67 µM (inactive)
- GI50 [5]: 1.4 µM (inactive) and 1.46 µM (inactive)
- GI50 [6]: 6270 nM (inactive)
- GI50 [7]: 714 nM (active)
- GI50 [8]: 2.15 µM (inactive) and 449 nM (active)
- GI50 [9]: 1.72 µM (inactive) and 1.77 µM (inactive)
- GI50 [10]: 2470 nM and 1260 nM
- GI50 [11]: 2.27 µM (inactive) and 1.53 µM (inactive)
- GI50 [12]: 1890 nM (inactive)
- GI50 [13]: 1.8 µM (inactive) and 1.13 µM (inactive)
- GI50 [14]: 1.54 µM (inactive) and 1.53 µM (inactive)
- GI50 [15]: 242 nM (active) and 746 nM (active)
- GI50 [16]: 168 nM (active) and 1.19 µM (inactive)
- GI50 [17]: 130 nM (active) and 1.18 µM (inactive)
- GI50 [18]: 1660 nM (inactive)
- GI50 [19]: 1260 nM (inactive)
- GI50 [20]: 200 nM (active) and 2.02 µM (inactive)
- GI50 [21]: 332 nM (active) and 1.7 µM (inactive)
- GI50 [22]: 1480 nM (inactive)
- GI50 [23]: 124 nM (active)
- GI50 [24]: 1.67 µM (inactive) and 239 nM (active)
- GI50 [25]: 2040 nM (inactive)
- GI50 [26]: 1.56 µM (inactive) and 1.36 µM (inactive)
- GI50 [27]: 1.86 µM (inactive) and 1.73 µM (inactive)
- GI50 [28]: 340 nM (active) and 1.76 µM (inactive)
- GI50 [29]: > 100000 nM (inactive)
- GI50 [30]: 1860 nM (inactive)
- GI50 [31]: 1660 nM (inactive)
- GI50 [32]: 1870 nM (inactive)
- GI50 [33]: 1.98 µM (inactive) and 2 µM (inactive)
- GI50 [34]: 1.45 µM (inactive) and 2.01 µM (inactive)
- GI50 [35]: 1.27 µM (inactive) and 1.75 µM (inactive)
- GI50 [36]: 1460 nM (inactive)
- GI50 [37]: 1830 nM (inactive)
- GI50 [38]: 1.56 µM (inactive) and 1.47 µM (inactive)
- GI50 [39]: 1.53 µM (inactive) and 1.85 µM (inactive)
- GI50 [40]: 1.38 µM (inactive) and 1.47 µM (inactive)
- GI50 [41]: 1.91 µM (inactive) and 1 µM (active)
- GI50 [42]: 1.58 µM (inactive) and 1.35 µM (inactive)
- GI50 [43]: 1830 nM (inactive)
- GI50 [44]: 2 µM (inactive) and 1.34 µM (inactive)
- GI50 [45]: 15.5 nM (active)
- GI50 [46]: 36.8 nM (active)
- GI50 [47]: 435 nM (active) and 1.27 µM (inactive)
- GI50 [48]: 1.54 µM (inactive) and 1.57 µM (inactive)
- GI50 [49]: 1.05 µM (active) and 272 nM (active)
- GI50 [50]: 1.41 µM (inactive) and 1.44 µM (inactive)
- GI50 [51]: 1.56 µM (inactive) and 1.94 µM (inactive)
- GI50 [52]: 2.05 µM (inactive) and 1.29 µM (inactive)

Compound: O=[N+]([O-])c1cc([N+](=O)[O-])c(Nn2c3ccccc3c3ccccc32)c([N+](=O)[O-])c1
- GI50 [1]: 2740 nM (inactive)
- GI50 [3]: 2.82 µM (inactive)
- GI50 [4]: 1.2 µM (inactive)
- GI50 [5]: 2.18 µM (inactive)
- GI50 [7]: 2160 nM (inactive)
- GI50 [53]: 2560 nM (inactive)
- GI50 [8]: 4.15 µM (inactive)
- GI50 [9]: 1.64 µM (inactive)
- GI50 [54]: 2740 nM (inactive)
- GI50 [10]: 2580 nM
- GI50 [11]: 3.51 µM (inactive)
- GI50 [12]: 1870 nM (inactive)
- GI50 [13]: 346 nM (active)
- GI50 [55]: 857 nM (active)
- GI50 [14]: 2.46 µM (inactive)
- GI50 [56]: 2180 nM (inactive)
- GI50 [15]: 1.14 µM (inactive)
- GI50 [16]: 622 nM (active)
- GI50 [18]: 2170 nM (inactive)
- GI50 [19]: 1250 nM (inactive)
- GI50 [21]: 1.56 µM (inactive)
- GI50 [22]: 2380 nM (inactive)
- GI50 [23]: 690 nM (active)
- GI50 [24]: 1.42 µM (inactive)
- GI50 [25]: 1400 nM (inactive)
- GI50 [26]: 1.43 µM (inactive)
- GI50 [27]: 1.86 µM (inactive)
- GI50 [28]: 403 nM (active)
- GI50 [29]: 3240 nM (inactive)
- GI50 [31]: 2120 nM (inactive)
- GI50 [32]: 4630 nM (inactive)
- GI50 [33]: 2.55 µM (inactive)
- GI50 [34]: 1.25 µM (inactive)
- GI50 [35]: 650 nM (active)
- GI50 [37]: 2940 nM (inactive)
- GI50 [38]: 1.25 µM (inactive)
- GI50 [39]: 2.12 µM (inactive)
- GI50 [40]: 3.3 µM (inactive)
- GI50 [42]: 1.94 µM (inactive)
- GI50 [44]: 1.79 µM (inactive)
- GI50 [57]: 3040 nM (inactive)
- GI50 [46]: 940 nM (active)
- GI50 [47]: 3.02 µM (inactive)
- GI50 [58]: 641 nM (active)
- GI50 [48]: 2.2 µM (inactive)
- GI50 [49]: 1.82 µM (inactive)
- GI50 [51]: 933 nM (active)
- GI50 [52]: 2.07 µM (inactive)
